In PMC7226370, “Thymus algeriensis and Thymus fontanesii: Chemical Composition, In Vivo Antiinflammatory, Pain Killing and Antipyretic Activities: A Comprehensive Comparison” (Biomolecules, 2020):
Values belong to the compound of their own block, whether it stands above or below them.

Experiments:
lipoxygenase (5-LOX) = experiment: Lipoxygenase inhibitor screening assay kit; format: biochemical; details: in vitro, mean ± SEM, n = 3
Experimental: The potential of T. algeriensis and T. fontanesii extracts to inhibit lipoxygenase was evaluated using a lipoxygenase inhibitor screening assay kit (Cayman Chemical, AnnArbor, MI, USA) according to the manufacturer’s instructions and the study by Adellall et al..

[1] = test system: Brewer's yeast induced pyrexia in mice; experiment: Brewer's yeast induced pyrexia; format: in vivo, mouse; details: in °C (unit assumed)
Experimental: Pyrexia in mice was induced as described by Liu et al. with minor modifications. The initial rectum temperature of each animal was measured using a lubricated digital thermometer. Brewer’s yeast suspension was prepared in normal saline (30%) and injected subcutaneously behind the animal’s neck (1 mL/100 g). After 18 h, animals’ rectal temperatures were measured again (T0). […] Pyretic animals were treated orally with either T. algeriensis or T. fontanesii extracts in three dose levels (200, 400, and 600 mg/kg), paracetamol (150 mg/kg), or vehicle. Rectal temperatures were measured at 30 min, 1, 2, 3 and 24 h following the different treatments.

[2] = Total antioxidant capacity (TAC) ELISA kit; details: mean ± SEM, n = 3
Experimental: The total antioxidant capacity of the extracts was evaluated against ascorbic acid as a reference standard using the commercially available TAC ELISA kit (MBS726896, my BioSource, Inc., San Diego, CA, USA) according to the manufacturer’s instructions and according to Sobeh et al..

[3] = test system: carrageenan-induced hind paw edema in rats; experiment: Carrageenan-induced hind-paw edema model; format: in vivo, rat; details: 1 h before carrageenan
Experimental: Nine groups of male rats (200-220 g) with five animals per group were used in this experiment. Induction of edema in the rats' right hind paw was done by injecting 0.1 mL freshly prepared carrageenan solution (1% in 0.9% NaCl), into the sub-plantar tissue. […] By the aid of a caliper ruler, the paw thickness (mm) was measured in the dorsal- plantar axis before and after injecting the carrageenan solution, and at hourly intervals for 5 h, and finally at 24 h. The cumulative anti-inflammatory effect during the whole observation period (0-24 h) was determined by calculating the area under the changes in paw thickness-time curve (AUC0-24).

[4] = test system: leukocyte migration into the peritoneal cavity in mice; experiment: Carrageenan-induced leukocyte recruitment into peritoneal cavity; format: in vivo, mouse
Experimental: Three hours later, the mice were euthanized, and each peritoneal cavity was washed with 3 mL of phosphate-buffered saline (PBS) containing 1mM ethylenediaminetetraacetic acid (EDTA). The total leukocytes count was determined in each peritoneal cavity wash using a hemocytometer and presented as number of cells/mL.

[5] = test system: acetic acid-induced vascular permeability in mice; experiment: Acetic acid-induced vascular permeability (Evans blue); format: in vivo, mouse
Experimental: Acetic acid-induced vascular permeability was done as described by Sobeh et al.. […] One group of mice was injected with normal saline to serve as normal control. Mice were euthanized 30 min later by cervical dislocation, the abdominal cavities were washed with 3 mL saline solution, and the collected washings were then centrifuged at 3000 rpm for 10 min. The vascular permeability is proportional to the absorbance of Evans blue dye in the supernatant, which was detected at 610 nm using a plate reader (Biotech, Winooski, VT, USA).

Compound: CC(c1cc2ccccc2s1)N(O)C(N)=O (stereo not drawn) [Zileuton]
- IC50 (lipoxygenase (5-LOX)): 3200 ± 150 nM

Compound: CC(=O)Nc1ccc(O)cc1 [Paracetamol]
- Rectal Temperature Recorded Following Different Treatments, 30 min ([1]; 150 mg/kg p.o., 30 min): 38.18 ± 0.20
- Rectal Temperature Recorded Following Different Treatments, 1 h ([1]; 150 mg/kg p.o., 1 h): 37.56 ± 0.30
- Rectal Temperature Recorded Following Different Treatments, 2 h ([1]; 150 mg/kg p.o., 2 h): 37.06 ± 0.29
- Rectal Temperature Recorded Following Different Treatments, 3 h ([1]; 150 mg/kg p.o., 3 h): 36.94 ± 0.25
- Rectal Temperature Recorded Following Different Treatments, 24 h ([1]; 150 mg/kg p.o., 24 h): 36.54 ± 0.23
- Rectal Temperature measured at 18 h after yeast injection ([1]; group of 150 mg/kg, before treatment (T0)): 38.66 ± 0.18

Compound: O=C1O[C@H]([C@@H](O)CO)C(O)=C1O [Ascorbic Acid]
- TAC (total antioxidant capacity) [2]: 27.6 ± 1.40 U/L

Compound: C[C@@H]1C[C@H]2[C@@H]3CCC4=CC(=O)C=C[C@]4(C)[C@@]3(F)[C@@H](O)C[C@]2(C)[C@@]1(O)C(=O)CO [dexamethasone]
- reduction in AUC0-24 values compared to vehicle-treated rats ([3]; 2 mg/kg p.o.): 51%
- reduction in leucocyte number ([4]; 2 mg/kg p.o. before carrageenan 500 µg i.p.): 30%
- lower Evans blue readings compared to control ([5]; 2 mg/kg): 60%

- IC50 (lipoxygenase (5-LOX)): 2600 ± 210 nM
Compound: O=C(O)Cc1ccccc1Nc1c(Cl)cccc1Cl [Diclofenac]
- reduction of paw thickness, of control AUC0-24 ([3]; 20 mg/kg p.o.): 44%
- reduction in leucocyte number ([4]; 20 mg/kg p.o. before carrageenan 500 µg i.p.): 39%
- lower Evans blue readings compared to control ([5]; 20 mg/kg): 73%
